Measurements from ChEMBL document CHEMBL1201862, “PubChem BioAssay data set” (2004).
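Growth conditions: 96-well plates. Treatment: test compound, 48 hours, 5 concentrations. Analysis: linear interpolation between bracketing concentrations; unreached endpoints set to highest concentration. GI50 is the concentration that inhibits growth by half.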 Active and inactive are the calls of the source. No stated cut-off is given here; in the data, active = GI50 up to about 1.1 µM and inactive = higher.

Assays:
Experiment in all cases: DTP human tumour cell line panel, 48 h
UO-31 = test system: UO-31
IGROV-1 = test system: IGROV-1
CAKI-1 = test system: CAKI-1
MCF7 = test system: MCF7
COLO 205 = test system: COLO 205
NCI-H522 = test system: NCI-H522
OVCAR-3 = test system: OVCAR-3
EKVX = test system: EKVX
RXF 393 = test system: RXF 393
OVCAR-8 = test system: OVCAR-8
KM12 = test system: KM12
OVCAR-4 = test system: OVCAR-4
HT-29 = test system: HT-29
HOP-62 = test system: HOP-62
Hs-578T = test system: Hs-578T
U-251 = test system: U-251
CCRF-CEM = test system: CCRF-CEM
NCI-H460 = test system: NCI-H460

Compound | GI50 (UO-31) | GI50 (IGROV-1) | GI50 (CAKI-1) | GI50 (MCF7) | GI50 (COLO 205) | GI50 (NCI-H522) | GI50 (OVCAR-3) | GI50 (EKVX) | GI50 (RXF 393) | GI50 (OVCAR-8) | GI50 (KM12) | GI50 (OVCAR-4) | GI50 (HT-29) | GI50 (HOP-62) | GI50 (Hs-578T) | GI50 (U-251) | GI50 (CCRF-CEM) | GI50 (NCI-H460)
O=C1c2ccccc2C(=O)c2c(Nc3cc4c5c(ccc6c7ccc8c9c(cc(Nc%10cccc%11c%10C(=O)c%10ccccc%10C%11=O)c(c3c56)c97)-c3ccccc3C8=O)C(=O)c3ccccc3-4)cccc21 | 84.5 µM (inactive) | 24.6 µM (inactive) | 67 µM (inactive) | 83.2 µM (inactive) | > 100 µM (inactive) | 71 µM (inactive) | 41.2 µM (inactive) | 40.6 µM (inactive) | 60.3 µM (inactive) | 25 µM (inactive) | > 100 µM (inactive) | 65.8 µM (inactive) | > 100 µM (inactive) | 17 µM (inactive) | 18.1 µM (inactive) | 21.1 µM (inactive) |  | 
CN(C)c1ccc(C=c2c3ccccc3n3c2c2ccccc2[n+]3C)cc1 | 0.836 µM (active) | 0.82 µM (active) | 1.08 µM (active) | 0.822 µM (active) | 0.0682 µM (active) | 0.174 µM (active) | 0.239 µM (active) | 2.65 µM (inactive) | 1.52 µM (inactive) | 0.364 µM (active) | 1.01 µM (active) | 1.18 µM (inactive) | 0.689 µM (active) | 0.942 µM (active) | 0.635 µM (active) | 0.196 µM (active) | 0.15 µM (active) | 2.84 µM (inactive)
C1CN(c2nc3c(nnc4nc(N5CCOCC5)sc43)s2)CCO1 | > 100 µM (inactive) | > 100 µM (inactive) | > 100 µM (inactive) | 73.3 µM (inactive) | > 100 µM (inactive) | 45.3 µM (inactive) | 78.3 µM (inactive) | > 100 µM (inactive) | > 100 µM (inactive) | > 100 µM (inactive) | > 100 µM (inactive) | > 100 µM (inactive) | > 100 µM (inactive) | > 100 µM (inactive) | 53.6 µM (inactive) | 60.8 µM (inactive) | 52.8 µM (inactive) | 
O=P(O)(Cc1ccccc1)c1ccccc1-c1ccccc1 | > 100 µM (inactive) | > 100 µM (inactive) | > 100 µM (inactive) | > 100 µM (inactive) | 57.8 µM (inactive) | > 100 µM (inactive) |  | 41.9 µM (inactive) | 54.6 µM (inactive) | > 100 µM (inactive) | 77.3 µM (inactive) | > 100 µM (inactive) | > 100 µM (inactive) | > 100 µM (inactive) | > 100 µM (inactive) | 57.1 µM (inactive) | > 100 µM (inactive) | 62.7 µM (inactive)
O=C1CS(=O)(=O)C(c2cccc(Oc3ccccc3)c2)N1c1ccccc1 (stereo unspecified) | 29.9 µM (inactive) |  | 20.5 µM (inactive) | 14.3 µM (inactive) | 20 µM (inactive) | 18.9 µM (inactive) | 20.7 µM (inactive) | 16.4 µM (inactive) | 19.3 µM (inactive) | 27 µM (inactive) | 25.8 µM (inactive) | 26.1 µM (inactive) | 26.5 µM (inactive) | 36.7 µM (inactive) | 28.4 µM (inactive) | 16.6 µM (inactive) | 34.8 µM (inactive) | 18.7 µM (inactive)
Brc1ccc2c([C@H]3CN[C@@H](c4c[nH]c5cc(Br)ccc45)CN3)c[nH]c2c1 | 4.16 µM (inactive) | 3.19 µM (inactive) | 2.94 µM (inactive) | 1.9 µM (inactive) | 1.57 µM (inactive) | 1.57 µM (inactive) | 1.94 µM (inactive) | 10.5 µM (inactive) | 2.4 µM (inactive) | 1.84 µM (inactive) | 1.7 µM (inactive) | 1.9 µM (inactive) | 1.92 µM (inactive) | 11.6 µM (inactive) | 7.62 µM (inactive) | 2 µM (inactive) | 2.84 µM (inactive) | 1.9 µM (inactive)
CN(CCNC(=O)c1c[nH]c2c1Cc1ccccc1-2)CCNC(=O)c1c[nH]c2c1Cc1ccccc1-2 | 28.6 µM (inactive) | 27.9 µM (inactive) | 48.6 µM (inactive) | 22.9 µM (inactive) | 35 µM (inactive) | 19.6 µM (inactive) | 21 µM (inactive) | 37.1 µM (inactive) | 30.5 µM (inactive) | 32.1 µM (inactive) | 33.3 µM (inactive) | 59.3 µM (inactive) | 35.1 µM (inactive) | 26.4 µM (inactive) | 35.3 µM (inactive) | 18.5 µM (inactive) |  | 35.1 µM (inactive)
NS(=O)(=O)c1ccc(NNc2c3ccccc3nc3c(C(=O)Nc4ccc(S(=O)(=O)Nc5ncccn5)cc4)cccc23)cc1 | > 25 µM (inactive) | > 25 µM (inactive) | > 25 µM (inactive) | > 25 µM (inactive) | > 25 µM (inactive) | > 25 µM (inactive) | > 25 µM (inactive) | > 25 µM (inactive) | > 25 µM (inactive) | > 25 µM (inactive) | > 25 µM (inactive) | > 25 µM (inactive) | 10.2 µM (inactive) | > 25 µM (inactive) | > 25 µM (inactive) | > 25 µM (inactive) | > 25 µM (inactive) | > 25 µM (inactive)
O=C1CC(CC(O)[C@@H]2CCCC[C@@H]2O)CC(=O)N1c1ccccc1 (stereo partly specified) | > 100 µM (inactive) | > 100 µM (inactive) | > 100 µM (inactive) | > 100 µM (inactive) |  | > 100 µM (inactive) | > 100 µM (inactive) |  | > 100 µM (inactive) | > 100 µM (inactive) | > 100 µM (inactive) | > 100 µM (inactive) | > 100 µM (inactive) | > 100 µM (inactive) | > 100 µM (inactive) | > 100 µM (inactive) | > 100 µM (inactive) | > 100 µM (inactive)
CCC1CN(C(=O)c2ccccc2)C(Cc2c[nH]c3ccccc23)C(=O)C1CC(=O)OC (stereo unspecified) | 35.2 µM (inactive) | 72.4 µM (inactive) | 54.7 µM (inactive) | 57.5 µM (inactive) | > 100 µM (inactive) | 50.9 µM (inactive) |  | 77.4 µM (inactive) | > 100 µM (inactive) | 79.6 µM (inactive) | 59.2 µM (inactive) | > 100 µM (inactive) | 28 µM (inactive) | 39 µM (inactive) | 51.8 µM (inactive) | 41.6 µM (inactive) | 51.4 µM (inactive) | 43.4 µM (inactive)
O=C(OCc1ccccc1)C(Cc1ccc(OCc2ccccc2)cn1)NC(=O)C(F)(F)F (stereo unspecified) | 65.5 µM (inactive) | > 100 µM (inactive) | > 100 µM (inactive) | > 10 µM (inactive) | 27.4 µM (inactive) | 79.8 µM (inactive) | 71.3 µM (inactive) | > 100 µM (inactive) | > 100 µM (inactive) | > 100 µM (inactive) | > 100 µM (inactive) | > 100 µM (inactive) | 57.9 µM (inactive) | > 100 µM (inactive) | > 100 µM (inactive) | 72.3 µM (inactive) | > 10 µM (inactive) | > 100 µM (inactive)
COc1ccccc1CNCc1nc2ccccc2[nH]1 | > 100 µM (inactive) | > 100 µM (inactive) | > 100 µM (inactive) | > 100 µM (inactive) | > 100 µM (inactive) | > 100 µM (inactive) | > 100 µM (inactive) | 92.9 µM (inactive) | > 100 µM (inactive) | > 100 µM (inactive) | > 100 µM (inactive) | > 100 µM (inactive) | 78.7 µM (inactive) | > 100 µM (inactive) | > 100 µM (inactive) | > 100 µM (inactive) | > 100 µM (inactive) | > 100 µM (inactive)
Cn1c2c3ccc(Cl)cc3nc-2c(Cl)c2ccccc21 | 16.3 µM (inactive) | 16.6 µM (inactive) | 17.3 µM (inactive) | 26.2 µM (inactive) | 12.2 µM (inactive) | 17.9 µM (inactive) | 14 µM (inactive) | 22.9 µM (inactive) | 16.6 µM (inactive) | 20.2 µM (inactive) | 16.9 µM (inactive) | 17.1 µM (inactive) | 15.3 µM (inactive) | 16.4 µM (inactive) | 40.6 µM (inactive) | 10.9 µM (inactive) | 3.86 µM (inactive) | 12.7 µM (inactive)
CCOC(=O)C1=C(O)C2C3CC4C2C(O)=C(C(=O)OCC)C2C1C3C42 (stereo unspecified) | > 100 µM (inactive) | > 100 µM (inactive) | > 100 µM (inactive) | > 100 µM (inactive) | > 100 µM (inactive) | > 100 µM (inactive) | > 100 µM (inactive) | > 100 µM (inactive) | > 100 µM (inactive) | > 100 µM (inactive) | > 100 µM (inactive) | > 100 µM (inactive) | > 100 µM (inactive) | > 100 µM (inactive) | > 100 µM (inactive) | > 100 µM (inactive) | 42.7 µM (inactive) | > 100 µM (inactive)
C[O+]=C1C=CC(=C2SC(c3ccccc3)(c3ccccc3)c3ccccc32)C=C1.[O-][Cl+3]([O-])([O-])[O-] | 10 µM (inactive) | 33 µM (inactive) | 30.9 µM (inactive) | 25.4 µM (inactive) | 17.3 µM (inactive) | 20.7 µM (inactive) | 16.1 µM (inactive) | 17.8 µM (inactive) | 11.8 µM (inactive) | 32.1 µM (inactive) | 15.7 µM (inactive) | 14.6 µM (inactive) | 15 µM (inactive) | 28 µM (inactive) | 18.6 µM (inactive) | 22.6 µM (inactive) | 26.4 µM (inactive) | 14 µM (inactive)
